Test results published in patent publication US20220281848A1, “PYRAZOLE-SUBSTITUTED PYRROLIDINONES AS HERBICIDES” (FMC Corporation, priority 2019, published 2022).

Legend:
Format in all cases: in vivo
[1] = tested on: plants; assay: Test D post-emergence, other plants of Tables D2 and D4; details: for damage to plant (100=total damage to plant; 0=no damage to plant), ABUTH / damage to plant (100=total damage to plant; 0=no damage to plant), AMARE / damage to plant (100=total damage to plant; 0=no damage to plant), BIDPI / damage to plant (100=total damage to plant; 0=no damage to plant), BRAPL / damage to plant (100=total damage to plant; 0=no damage to plant), CYPES / damage to plant (100=total damage to plant; 0=no damage to plant), DIGSA / damage to plant (100=total damage to plant; 0=no damage to plant), ECHCG / damage to plant (100=total damage to plant; 0=no damage to plant), ELEIN / damage to plant (100=total damage to plant; 0=no damage to plant), EPHHL / damage to plant (100=total damage to plant; 0=no damage to plant), GLXMA / damage to plant (100=total damage to plant; 0=no damage to plant), IPOHE / damage to plant (100=total damage to plant; 0=no damage to plant), ORYSA / damage to plant (100=total damage to plant; 0=no damage to plant), PANMI / damage to plant (100=total damage to plant; 0=no damage to plant), SETFA / damage to plant (100=total damage to plant; 0=no damage to plant), SORVU: post-emergence
Procedure, shortened: (§1)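 Seeds treated with herbicide safener; sown in soil; glasshouse, 16 h light, 65% humidity. Sprayed day 1 (pre) or ~day 12 (post). Spray in 0.2% v/v adjuvant. Scored 0–100 damage: 20 DAA pre, 15 d post.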

[2] = tested on: wheat; assay: Test D pre-emergence, wheat seed treated with a herbicide safener; details: 100=total damage, 0=no damage
Procedure, shortened: as §1

[3] = tested on: redroot pigweed (Amaranthus retroflexus, AMARE); assay: Test A pre-emergence, redroot pigweed; details: after 13 d
Procedure, shortened: (§2)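 Values are percent plant damage 13 d after a pre-emergence spray (15.625, 62.5 or 250 g/ha; acetone/water with 0.5% Tween 20) applied to pots one day post-sowing, under glasshouse conditions of 24/16° C. and twice-daily watering.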

[4] = tested on: velvetleaf (Abutilon theophrasti, ABUTH); assay: Test A pre-emergence, velvetleaf; details: after 13 d
Procedure, shortened: as §2

[5] = "Cereals" Postemergent, Rates 130, evaluated after 15 d
[6] = "Cereals" Postemergent, Rates 250, evaluated after 15 d
[7] = "Cereals" Postemergent, Rates 500, evaluated after 15 d

CN1CC(c2cc(C(F)(F)F)n(C)n2)C(C(=O)Nc2ccc(F)nc2F)C1=O (racemic) [Compound 22]
ALOMY damage rating (100=total damage to plant; 0=no damage to plant) [1, 5]: 0
ALOMY damage rating (100=total damage to plant; 0=no damage to plant) [1, 6]: 0
ALOMY damage rating (100=total damage to plant; 0=no damage to plant) [1, 7]: 10
AVEFA damage rating (100=total damage to plant; 0=no damage to plant) [1, 5]: 0
AVEFA damage rating (100=total damage to plant; 0=no damage to plant) [1, 6]: 0
AVEFA damage rating (100=total damage to plant; 0=no damage to plant) [1, 7]: 10
BEAVA damage rating (100=total damage to plant; 0=no damage to plant) [1, 5]: 0
BEAVA damage rating (100=total damage to plant; 0=no damage to plant) [1, 6]: 0
BEAVA damage rating (100=total damage to plant; 0=no damage to plant) [1, 7]: 10
BROTE damage rating (100=total damage to plant; 0=no damage to plant) [1, 5]: 0
BROTE damage rating (100=total damage to plant; 0=no damage to plant) [1, 6]: 0
BROTE damage rating (100=total damage to plant; 0=no damage to plant) [1, 7]: 0
BRSNN damage rating (100=total damage to plant; 0=no damage to plant) [1, 5]: 10
BRSNN damage rating (100=total damage to plant; 0=no damage to plant) [1, 6]: 10
BRSNN damage rating (100=total damage to plant; 0=no damage to plant) [1, 7]: 10
CHEAL damage rating (100=total damage to plant; 0=no damage to plant) [1, 5]: 0
CHEAL damage rating (100=total damage to plant; 0=no damage to plant) [1, 6]: 20
CHEAL damage rating (100=total damage to plant; 0=no damage to plant) [1, 7]: 30
GALAP damage rating (100=total damage to plant; 0=no damage to plant) [1, 5]: 0
GALAP damage rating (100=total damage to plant; 0=no damage to plant) [1, 6]: 40
GALAP damage rating (100=total damage to plant; 0=no damage to plant) [1, 7]: 10
HORVW damage rating (100=total damage to plant; 0=no damage to plant) [1, 5]: 0
HORVW damage rating (100=total damage to plant; 0=no damage to plant) [1, 6]: 10
HORVW damage rating (100=total damage to plant; 0=no damage to plant) [1, 7]: 20
KCHSC damage rating (100=total damage to plant; 0=no damage to plant) [1, 5]: 0
KCHSC damage rating (100=total damage to plant; 0=no damage to plant) [1, 6]: 0
KCHSC damage rating (100=total damage to plant; 0=no damage to plant) [1, 7]: 0
LOLPE damage rating (100=total damage to plant; 0=no damage to plant) [1, 5]: 0
LOLPE damage rating (100=total damage to plant; 0=no damage to plant) [1, 6]: 0
LOLPE damage rating (100=total damage to plant; 0=no damage to plant) [1, 7]: 0
POAAN damage rating (100=total damage to plant; 0=no damage to plant) [1, 5]: 0
POAAN damage rating (100=total damage to plant; 0=no damage to plant) [1, 6]: 0
POAAN damage rating (100=total damage to plant; 0=no damage to plant) [1, 7]: 0
POLCO damage rating (100=total damage to plant; 0=no damage to plant) [1, 5]: 0
POLCO damage rating (100=total damage to plant; 0=no damage to plant) [1, 6]: 0
POLCO damage rating (100=total damage to plant; 0=no damage to plant) [1, 7]: 10
SINAR damage rating (100=total damage to plant; 0=no damage to plant) ([1]; SINAR, "Cereals" Postemergent, Rates 500, evaluated after 15 d): 20
STEME damage rating (100=total damage to plant; 0=no damage to plant) [1, 5]: 0
STEME damage rating (100=total damage to plant; 0=no damage to plant) [1, 6]: 0
STEME damage rating (100=total damage to plant; 0=no damage to plant) [1, 7]: 30
VERPE damage rating (100=total damage to plant; 0=no damage to plant) [1, 5]: 0
VERPE damage rating (100=total damage to plant; 0=no damage to plant) [1, 6]: 50
VERPE damage rating (100=total damage to plant; 0=no damage to plant) [1, 7]: 60
damage to plant (100=total damage to plant; 0=no damage to plant), ABUTH ([1]; rate 130, evaluated after 15 d): 0
damage to plant (100=total damage to plant; 0=no damage to plant), ABUTH ([1]; rate 250, evaluated after 15 d): 10
damage to plant (100=total damage to plant; 0=no damage to plant), ABUTH ([1]; rate 500, evaluated after 15 d): 30
damage to plant (100=total damage to plant; 0=no damage to plant), AMARE ([1]; rate 130, evaluated after 15 d): 0
damage to plant (100=total damage to plant; 0=no damage to plant), AMARE ([1]; rate 250, evaluated after 15 d): 0
damage to plant (100=total damage to plant; 0=no damage to plant), AMARE ([1]; rate 500, evaluated after 15 d): 0
damage to plant (100=total damage to plant; 0=no damage to plant), BIDPI ([1]; rate 130, evaluated after 15 d): 0
damage to plant (100=total damage to plant; 0=no damage to plant), BIDPI ([1]; rate 250, evaluated after 15 d): 0
damage to plant (100=total damage to plant; 0=no damage to plant), BIDPI ([1]; rate 500, evaluated after 15 d): 20
damage to plant (100=total damage to plant; 0=no damage to plant), BRAPL ([1]; rate 130, evaluated after 15 d): 0
damage to plant (100=total damage to plant; 0=no damage to plant), BRAPL ([1]; rate 250, evaluated after 15 d): 50
damage to plant (100=total damage to plant; 0=no damage to plant), BRAPL ([1]; rate 500, evaluated after 15 d): 70
damage to plant (100=total damage to plant; 0=no damage to plant), CYPES ([1]; rate 130, evaluated after 15 d): 0
damage to plant (100=total damage to plant; 0=no damage to plant), CYPES ([1]; rate 250, evaluated after 15 d): 0
damage to plant (100=total damage to plant; 0=no damage to plant), CYPES ([1]; rate 500, evaluated after 15 d): 10
damage to plant (100=total damage to plant; 0=no damage to plant), DIGSA ([1]; rate 130, evaluated after 15 d): 40
damage to plant (100=total damage to plant; 0=no damage to plant), DIGSA ([1]; rate 250, evaluated after 15 d): 60
damage to plant (100=total damage to plant; 0=no damage to plant), DIGSA ([1]; rate 500, evaluated after 15 d): 60
damage to plant (100=total damage to plant; 0=no damage to plant), ECHCG ([1]; rate 130, evaluated after 15 d): 0
damage to plant (100=total damage to plant; 0=no damage to plant), ECHCG ([1]; rate 250, evaluated after 15 d): 40
damage to plant (100=total damage to plant; 0=no damage to plant), ECHCG ([1]; rate 500, evaluated after 15 d): 50
damage to plant (100=total damage to plant; 0=no damage to plant), ELEIN ([1]; rate 130, evaluated after 15 d): 10
damage to plant (100=total damage to plant; 0=no damage to plant), ELEIN ([1]; rate 250, evaluated after 15 d): 10
damage to plant (100=total damage to plant; 0=no damage to plant), ELEIN ([1]; rate 500, evaluated after 15 d): 40
damage to plant (100=total damage to plant; 0=no damage to plant), EPHHL ([1]; rate 130, evaluated after 15 d): 0
damage to plant (100=total damage to plant; 0=no damage to plant), EPHHL ([1]; rate 250, evaluated after 15 d): 20
damage to plant (100=total damage to plant; 0=no damage to plant), EPHHL ([1]; rate 500, evaluated after 15 d): 30
damage to plant (100=total damage to plant; 0=no damage to plant), GLXMA ([1]; rate 130, evaluated after 15 d): 0
damage to plant (100=total damage to plant; 0=no damage to plant), GLXMA ([1]; rate 250, evaluated after 15 d): 10
damage to plant (100=total damage to plant; 0=no damage to plant), GLXMA ([1]; rate 500, evaluated after 15 d): 40
damage to plant (100=total damage to plant; 0=no damage to plant), IPOHE ([1]; rate 130, evaluated after 15 d): 10
damage to plant (100=total damage to plant; 0=no damage to plant), IPOHE ([1]; rate 250, evaluated after 15 d): 30
damage to plant (100=total damage to plant; 0=no damage to plant), IPOHE ([1]; rate 500, evaluated after 15 d): 50
damage to plant (100=total damage to plant; 0=no damage to plant), ORYSA ([1]; rate 130, evaluated after 15 d): 0
damage to plant (100=total damage to plant; 0=no damage to plant), ORYSA ([1]; rate 250, evaluated after 15 d): 0
damage to plant (100=total damage to plant; 0=no damage to plant), ORYSA ([1]; rate 500, evaluated after 15 d): 0
damage to plant (100=total damage to plant; 0=no damage to plant), PANMI ([1]; rate 130, evaluated after 15 d): 70
damage to plant (100=total damage to plant; 0=no damage to plant), PANMI ([1]; rate 250, evaluated after 15 d): 20
damage to plant (100=total damage to plant; 0=no damage to plant), PANMI ([1]; rate 500, evaluated after 15 d): 40
damage to plant (100=total damage to plant; 0=no damage to plant), SETFA ([1]; rate 130, evaluated after 15 d): 0
damage to plant (100=total damage to plant; 0=no damage to plant), SETFA ([1]; rate 250, evaluated after 15 d): 0
damage to plant (100=total damage to plant; 0=no damage to plant), SETFA ([1]; rate 500, evaluated after 15 d): 20
damage to plant (100=total damage to plant; 0=no damage to plant), SORVU ([1]; rate 130, evaluated after 15 d): 0
damage to plant (100=total damage to plant; 0=no damage to plant), SORVU ([1]; rate 250, evaluated after 15 d): 0
damage to plant (100=total damage to plant; 0=no damage to plant), SORVU ([1]; rate 500, evaluated after 15 d): 0
damage to plant, TRZAW ([2]; rate 15, 20 DAA): 0
damage to plant, TRZAW ([2]; rate 30, 20 DAA): 0
damage to plant, TRZAW ([2]; rate 60, 20 DAA): 0
damage to plant, TRZAW ([2]; rate 130, 20 DAA): 0
damage to plant, TRZAW ([2]; rate 250, 20 DAA): 0
damage to plant, TRZAW ([2]; rate 500, 20 DAA): 10
damage to plant (100=total damage; 0=no damage) AMARE ([3]; Pre-Emergence at 15.625 g/ha): 0
damage to plant (100=total damage; 0=no damage) AMARE ([3]; Pre-Emergence at 62.5 g/ha): 10
damage to plant (100=total damage; 0=no damage) AMARE ([3]; Pre-Emergence at 250 g/ha): 20
damage to plant (100=total damage; 0=no damage) ABUTH ([4]; Pre-Emergence at 15.625 g/ha): 0
damage to plant (100=total damage; 0=no damage) ABUTH ([4]; Pre-Emergence at 62.5 g/ha): 0
damage to plant (100=total damage; 0=no damage) ABUTH ([4]; Pre-Emergence at 250 g/ha): 0
